# Reference: ChEMBL document CHEMBL1201862, “PubChem BioAssay data set” (2004)
#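 Compound exposure: 48 hours, 5 concentrations, 96-well plates. GI50 marks 50% less growth.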 Activity calls are given as the source filed them. No stated cut-off is given here; in the data, active = GI50 up to about 1.1 µM and inactive = higher.
# Tests used:
# Experiment in all cases: NCI-60 cell line screen, 48 h
# ACHN = tested on: ACHN
# EKVX = tested on: EKVX
# HCC 2998 = tested on: HCC 2998
# HCT-15 = tested on: HCT-15
# HOP-62 = tested on: HOP-62
# IGROV-1 = tested on: IGROV-1
# KM12 = tested on: KM12
# LOX IMVI = tested on: LOX IMVI
# MOLT-4 = tested on: MOLT-4
# NCI-H226 = tested on: NCI-H226
# NCI-H23 = tested on: NCI-H23
# OVCAR-5 = tested on: OVCAR-5
# SF-539 = tested on: SF-539
# SK-MEL-2 = tested on: SK-MEL-2
# SK-OV-3 = tested on: SK-OV-3
# SNB-19 = tested on: SNB-19
# SR = tested on: SR
# UACC-257 = tested on: UACC-257
# MCF7 = tested on: MCF7
# Hs-578T = tested on: Hs-578T
SMILES,GI50 (ACHN),GI50 (EKVX),GI50 (HCC 2998),GI50 (HCT-15) [µM],GI50 (HOP-62),GI50 (IGROV-1),GI50 (KM12),GI50 (LOX IMVI),GI50 (MOLT-4),GI50 (NCI-H226),GI50 (NCI-H23),GI50 (OVCAR-5),GI50 (SF-539),GI50 (SK-MEL-2),GI50 (SK-OV-3),GI50 (SNB-19),GI50 (SR),GI50 (UACC-257),GI50 (MCF7),GI50 (Hs-578T)
C/C=C/C#CC#C/C=C/C=C/C(O)CCO (configuration not stated),> 23.1 µM (inactive),> 23.1 µM (inactive),> 23.1 µM (inactive),> 23.1,> 23.1 µM (inactive),> 23.1 µM (inactive),> 23.1 µM (inactive),> 23.1 µM (inactive),17.5 µM (inactive),> 23.1 µM (inactive),> 23.1 µM (inactive),> 23.1 µM (inactive),> 23.1 µM (inactive),> 23.1 µM (inactive),> 23.1 µM (inactive),> 23.1 µM (inactive),> 23.1 µM (inactive),> 23.1 µM (inactive),–,–
CCC(C(=O)C(=O)OC)P1(=O)OC(C)(C)CN1C(C)(C)C (configuration not stated),> 100 µM (inactive),> 100 µM (inactive),> 100 µM (inactive),> 100,> 100 µM (inactive),> 100 µM (inactive),> 100 µM (inactive),> 100 µM (inactive),> 100 µM (inactive),> 100 µM (inactive),> 100 µM (inactive),> 100 µM (inactive),> 100 µM (inactive),> 100 µM (inactive),> 100 µM (inactive),> 100 µM (inactive),> 100 µM (inactive),> 100 µM (inactive),26.9 µM (inactive),–
CCCCOC(=O)C1C(c2ccc(Cl)cc2)NC(c2ccc(Cl)cc2)C(C(=O)OCCCC)S1(=O)=O (configuration not stated),> 100 µM (inactive),> 100 µM (inactive),> 100 µM (inactive),> 100,> 100 µM (inactive),> 100 µM (inactive),> 100 µM (inactive),> 100 µM (inactive),> 100 µM (inactive),> 100 µM (inactive),> 100 µM (inactive),> 100 µM (inactive),> 100 µM (inactive),> 100 µM (inactive),> 100 µM (inactive),> 100 µM (inactive),> 100 µM (inactive),> 100 µM (inactive),–,–
COc1ccc(N2C(=O)C3CC(c4ccc(C)cc4)c4c([nH]c5ccccc45)C3C2=O)cc1 (configuration not stated),21.6 µM (inactive),> 63.5 µM (inactive),52.7 µM (inactive),8.61,18.1 µM (inactive),38 µM (inactive),> 41.1 µM (inactive),6.92 µM (inactive),21 µM (inactive),9.53 µM (inactive),> 45.8 µM (inactive),> 72.3 µM (inactive),23.7 µM (inactive),> 75.2 µM (inactive),29.5 µM (inactive),12.4 µM (inactive),2.02 µM (inactive),> 100 µM (inactive),–,–
Cc1ccc(C2(c3ccc(C)c(O)c3C)CCN(C)CC2)c(C)c1O,> 100 µM (inactive),44.4 µM (inactive),–,> 100,51.2 µM (inactive),> 100 µM (inactive),46.5 µM (inactive),34.8 µM (inactive),> 100 µM (inactive),> 100 µM (inactive),> 100 µM (inactive),> 100 µM (inactive),–,26.9 µM (inactive),–,62.4 µM (inactive),49.8 µM (inactive),15.8 µM (inactive),–,> 100 µM (inactive)
Cc1nc(O)nc(N/N=C/c2c3ccccc3c(Cl)c3ccccc23)c1C(=O)Nc1ccc(Cl)cc1,33.8 µM (inactive),–,44.6 µM (inactive),> 100,34.7 µM (inactive),71.1 µM (inactive),–,38.9 µM (inactive),31.3 µM (inactive),74 µM (inactive),> 100 µM (inactive),> 100 µM (inactive),–,> 100 µM (inactive),–,92.5 µM (inactive),38.5 µM (inactive),> 100 µM (inactive),> 100 µM (inactive),–
C=CCN(c1cc(OCc2ccccc2)c2c(c1)c(C)cn2S(=O)(=O)c1ccccc1)S(C)(=O)=O,> 100 µM (inactive),> 100 µM (inactive),> 100 µM (inactive),> 100,> 100 µM (inactive),> 100 µM (inactive),> 100 µM (inactive),> 100 µM (inactive),> 100 µM (inactive),> 100 µM (inactive),> 100 µM (inactive),> 100 µM (inactive),> 100 µM (inactive),> 100 µM (inactive),> 100 µM (inactive),> 100 µM (inactive),> 100 µM (inactive),> 100 µM (inactive),–,> 100 µM (inactive)
Cc1ccc(OCCn2cc(Nc3ccccc3)c(=O)n(CCOc3ccc(C)cc3)c2=O)cc1,> 100 µM (inactive),> 100 µM (inactive),> 100 µM (inactive),> 100,–,50.8 µM (inactive),> 100 µM (inactive),> 100 µM (inactive),67.1 µM (inactive),> 100 µM (inactive),> 100 µM (inactive),> 100 µM (inactive),> 100 µM (inactive),> 100 µM (inactive),–,48.9 µM (inactive),–,> 100 µM (inactive),> 100 µM (inactive),67.6 µM (inactive)
C=CCNC(=S)NNC(=O)c1c(C)nc2sccn12,> 100 µM (inactive),> 100 µM (inactive),> 100 µM (inactive),> 100,> 100 µM (inactive),> 100 µM (inactive),> 100 µM (inactive),> 100 µM (inactive),> 100 µM (inactive),> 100 µM (inactive),> 100 µM (inactive),> 100 µM (inactive),> 100 µM (inactive),> 100 µM (inactive),> 100 µM (inactive),> 100 µM (inactive),> 100 µM (inactive),> 100 µM (inactive),–,–
N#CCCN(CCC#N)c1ccc(/C=C2\N=C(c3ccccc3)N(NC(=O)c3ccncc3)C2=O)cc1,> 100 µM (inactive),> 100 µM (inactive),–,> 100,> 100 µM (inactive),> 100 µM (inactive),> 100 µM (inactive),> 100 µM (inactive),> 100 µM (inactive),> 100 µM (inactive),–,> 100 µM (inactive),> 100 µM (inactive),> 100 µM (inactive),> 100 µM (inactive),> 100 µM (inactive),–,> 100 µM (inactive),> 100 µM (inactive),> 100 µM (inactive)
Cc1cc2c(C)nn(Cc3ccccc3Cl)c2c(C#N)c1C,> 100 µM (inactive),> 100 µM (inactive),> 100 µM (inactive),> 100,> 100 µM (inactive),> 100 µM (inactive),–,> 100 µM (inactive),> 100 µM (inactive),> 100 µM (inactive),> 100 µM (inactive),> 100 µM (inactive),> 100 µM (inactive),> 100 µM (inactive),> 100 µM (inactive),> 100 µM (inactive),> 100 µM (inactive),> 100 µM (inactive),–,–
CC(=O)OCC1OC(n2c(C)c(C(C)=O)c(-c3cccc4ccccc34)c(C#N)c2=S)C(OC(C)=O)C(OC(C)=O)C1OC(C)=O (configuration not stated),> 100 µM (inactive),> 100 µM (inactive),> 100 µM (inactive),> 100,> 100 µM (inactive),> 100 µM (inactive),> 100 µM (inactive),> 100 µM (inactive),> 100 µM (inactive),> 100 µM (inactive),> 100 µM (inactive),> 100 µM (inactive),> 100 µM (inactive),> 100 µM (inactive),> 100 µM (inactive),> 100 µM (inactive),> 100 µM (inactive),> 100 µM (inactive),> 100 µM (inactive),–
O=C1[C@H](O)[C@@H]2C(O)O[C@H]3[C@@H]2N1C[C@H]3[Si](c1ccccc1)(c1ccccc1)c1ccccc1 (some centres not stated),> 100 µM (inactive),> 100 µM (inactive),> 100 µM (inactive),> 100,> 100 µM (inactive),> 100 µM (inactive),> 100 µM (inactive),> 100 µM (inactive),> 100 µM (inactive),> 100 µM (inactive),> 100 µM (inactive),> 100 µM (inactive),> 100 µM (inactive),> 100 µM (inactive),> 100 µM (inactive),> 100 µM (inactive),> 100 µM (inactive),> 100 µM (inactive),> 100 µM (inactive),–
COc1cc2c(c(OC)c1OC)-c1ccc(SC)c(=O)cc1[C@@H](NCc1ccc([N+](=O)[O-])cc1)CC2,0.00959 µM (active),0.0074 µM (active),0.00299 µM (active),0.00487,0.00741 µM (active),0.0371 µM (active),0.0034 µM (active),0.00506 µM (active),0.00478 µM (active),0.00284 µM (active),0.00324 µM (active),0.0074 µM (active),0.00271 µM (active),0.0113 µM (active),0.00315 µM (active),0.0308 µM (active),0.00148 µM (active),0.00516 µM (active),–,–
CC1=C2C(=O)O[C@@H](c3ccoc3)[C@]2(C)CCC1=O [FRAXINELLONONE],> 100 µM (inactive),> 100 µM (inactive),> 100 µM (inactive),> 100,> 100 µM (inactive),> 100 µM (inactive),> 100 µM (inactive),> 100 µM (inactive),> 100 µM (inactive),> 100 µM (inactive),> 100 µM (inactive),> 100 µM (inactive),> 100 µM (inactive),> 100 µM (inactive),> 100 µM (inactive),> 100 µM (inactive),> 100 µM (inactive),> 100 µM (inactive),> 100 µM (inactive),–
